The test system of one experiment is NCI-H82. Briefly: Small-cell-lung cancer cell proliferation inhibition assay (PrestoBlue), NCI-H82. As to conditions: Homo sapiens, cMYC amplified SCLC cells, 72 hours. It counts as cell-based. Here is the method: (§1) Small cell lung cancer cells NCI-H82 (ATCC HTB-175, cMYC amplified), NCI-H446 (ATCC® HTB-171, cMYC amplified), and NCI-H69 (ATCC® HTB-119, MYCN amplified) were seeded at the density of 5000-10000 cells per well in 96-well plates. After 24 hours, the cancer cells were treated with each compound at various concentrations (0-10 μM) and then incubated for another 72 hours. IC50 values were computed based on duplicated 8-point titration.

A further experiment deals with NCI-H1792. Briefly: Proliferation inhibition of various cancer cells (PrestoBlue), NCI-H1792. It counts as cell-based. The note with it: Homo sapiens, Non-small cell lung cancer, 72 hours. The protocol: (§2) The efficacies of compounds 41 and 86 of Formula (I) in inhibiting proliferation of eleven types of cancer cells were determined using PrestoBlue™ Cell Viability Reagent (ThermoFisher Scientific, USA). The eleven types of cancer cells are small cell lung cancer, non-small cell lung cancer, liver cancer, pancreatic cancer, breast cancer, colon cancer, prostate cancer, neuroblastoma, brain cancer, leukemia, and cholangiocarcinoma.
(§3) More specifically, […], i.e., NCI-H82 (ATCC® HTB-175), NCI-H446 (ATCC® HTB-171), NCI-H69 (ATCC® HTB-119), NCI-H146 (ATCC® HTB-173), NCI-H1792 (ATCC® CRL-5895), NCI-H1299 (ATCC® CRL-5803), SNU-398 (ATCC® CRL-2233), PSN-1 (ATCC® CRL-3211), MIA PaCa-2 (ATCC® CRL-1420), MDA-MB-231 (ATCC® HTB-26), LOVO (ATCC® CCL-229), COLO 205 (ATCC® CCL-222), PC-3 (ATCC® CRL-1435), SK-N-BE(2) (ATCC® CRL-2271), D341 Med (ATCC® HTB-187), K562 (ATCC® CCL-243), MOLM-13 (DSMZ-German Collection of Microorganisms and Cell Cultures GmbH, ACC No. 554), and SNU-478 (KCLB 00478), were seeded at a density of 4000-10000 cells per well in 96-well plates for 24 hours. The cancer cells were then treated with each compound at various concentrations (0-10 μM), followed by incubation for another 72 hours. IC50 values were computed based on duplicated 8-point titration.

A further experiment deals with LOVO. Put plainly: Proliferation inhibition of various cancer cells (PrestoBlue), LOVO. The note with it: Homo sapiens, Colon cancer, 72 hours. The format is cell-based. Here is the method:
as §2, §3

For another experiment, the system named is NCI-H1299. Put plainly: Proliferation inhibition of various cancer cells (PrestoBlue), NCI-H1299. The format is cell-based. As to conditions: Homo sapiens, Non-small cell lung cancer, 72 hours. Here is the method: as §2, §3
Another experiment deals with D341 Med. Put plainly: Proliferation inhibition of various cancer cells (PrestoBlue), D341 Med. The format is cell-based. As to conditions: Brain cancer, 72 hours. Here is the method: as §2, §3
For another experiment, the system named is MOLM-13. Briefly: Proliferation inhibition of various cancer cells (PrestoBlue), MOLM-13. The format is cell-based. As to conditions: Homo sapiens, Leukemia, 72 hours. The protocol:
as §2, §3

Experiment [1] has as its system eleven types of cancer cells. Put plainly: Proliferation inhibition of eleven types of cancer cells (summary by cancer type). The format is cell-based. The protocol:
as §2, §3

Experiment [2] deals with T1, human Aurora A (amino acids 123-401) (Homo sapiens, UniProt O14965).
T1 construct: human Aurora A (amino acids 123-401) was expressed in Sf9 insect cells; GST; made in house; host or cells: Sf9 insect cells
T1 sequence (O14965 123-401): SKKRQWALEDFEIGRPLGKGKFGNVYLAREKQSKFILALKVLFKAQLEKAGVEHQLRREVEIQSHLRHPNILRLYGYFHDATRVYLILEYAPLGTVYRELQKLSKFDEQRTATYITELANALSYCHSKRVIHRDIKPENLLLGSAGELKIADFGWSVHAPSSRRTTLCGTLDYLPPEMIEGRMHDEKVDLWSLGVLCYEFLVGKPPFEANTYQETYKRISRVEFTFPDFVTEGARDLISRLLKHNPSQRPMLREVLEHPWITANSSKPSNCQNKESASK
Put plainly: Kinase-Glo Luminescent Kinase assay, in vitro inhibition of Aurora A kinase activity. The note with it: recombinant GST-tagged Aurora A, 5.0 μM ATP, 37° C., 120 minutes. The format is biochemical. The method, boiled down:
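GST-tagged Aurora A (aa 123-401) expressed in Sf9 cells, incubated with compound at 100 nM, 5.0 μM ATP and 15 μM tetra(-LRRASLG) peptide in Tris-HCl pH 7.4 with MgCl2, BSA and DTT, 120 min at 37° C. Remaining ATP read by Kinase-Glo Plus luminescence after 20 min at 25° C.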

The next experiment deals with NCI-H69. Briefly: Small-cell-lung cancer cell proliferation inhibition assay (PrestoBlue), NCI-H69. As to conditions: Homo sapiens, MYCN amplified SCLC cells, 72 hours. It counts as cell-based. Here is the method: as §1
Setting [3] is: all eleven cancer types, read-out: IC50 in inhibiting proliferation of all the eleven types of cancer cells.
Setting [4] is: breast cancer, read-out: IC50 in inhibiting proliferation of cells.
[5] abbreviates: cholangiocarcinoma, read-out: IC50 in inhibiting proliferation of cells.
Setting [6] is: non-small cell lung cancer, pancreatic cancer, and colon cancer, read-out: IC50 in inhibiting proliferation of cells.
Where [7] appears, read: prostate cancer, read-out: IC50 in inhibiting proliferation of cells.
Where [8] appears, read: small-cell-lung cancer, liver cancer, neuroblastoma, brain cancer, and leukemia, read-out: IC50 in inhibiting proliferation of cells.

Each structure is given as a SMILES string. Like-named read-outs stand apart in the source and are kept apart here.

Consider `CCN1CCN(c2cc(Nc3cc(C)[nH]n3)nc(N[C@H]3CCN(C(=O)c4ccc(Cl)cc4F)C3)n2)CC1` [Compound 41], for which the IC50 is below 1000 nM with NCI-H82; below 2000 nM in the experiment on NCI-H1792; below 10000 nM in the experiment on LOVO; below 1000 nM in the experiment with NCI-H1299; below 200 nM in the experiment with D341 Med; below 200 nM in the experiment on MOLM-13. The IC50 in experiment [1] (setting [3]) is below 10000 nM; in [1] (setting [4]), below 300 nM; in experiment [1] (setting [5]), below 2000 nM; in experiment [1] (setting [6]), below 1000 nM; in [1] (setting [7]), below 10000 nM; in experiment [1] (setting [8]) it was below 200 nM. The IC50 in experiment [2] was below 100 nM.

Consider `CCN1CCN(c2cc(Nc3cc(C)[nH]n3)nc(NC3CCN(C(=O)c4cccc(Cl)c4F)CC3)n2)CC1` [Compound 86], for which the IC50 in the experiment on NCI-H82 is below 1000 nM; in the experiment with NCI-H69 it was below 1000 nM; with NCI-H1792 it was below 2000 nM; in the experiment with LOVO it was below 10000 nM; in the experiment on NCI-H1299, below 1000 nM; with D341 Med, below 300 nM. Also, the IC50 in the experiment on MOLM-13 is below 200 nM; in experiment [1] (setting [3]), below 10000 nM; in [1] (setting [4]), below 300 nM; in experiment [1] (setting [5]), below 2000 nM; in experiment [1] (setting [6]), below 1000 nM; in experiment [1] (setting [7]), below 10000 nM. Besides, the figures for the IC50 in experiment [1] (setting [8]) and in experiment [2] were below 200 nM and below 100 nM, respectively.

The values are drawn from patent publication US12679827B2, “Pyrimidine compounds and their pharmaceutical uses” (National Health Research Institutes, priority 2020, dated 2026).
